We go through one substance from patent publication US20050267025A1, “Compositions and methods for treatment of infectious and inflammatory diseases” (priority 2002, published 2005).

The subject of the assay is human monocytes. It is filed as cell-based.

For the substance polymyxin B [reference compound], the “effect on IL-10 promotion when added to yeast rCFP32 or CF from WT and mutant Mtb” value is listed as “no effect”.
